Each compound was assayed against SARS-CoV-2 3CLpro (Severe acute respiratory syndrome coronavirus 2, UniProt P0DTD1) (assay: biochemical). Details: inhibition of SARS-CoV-2 3CLpro; 15 nM 3CLpro, 25 μM fluorogenic substrate, 37° C.; read-out: Inhibitory Activity (IC50).

C[C@@H](NC(=O)c1cc(Br)cc([N+](=O)[O-])c1N1CCC2(CN(C(=O)c3cncc4ccccc34)CC2(F)F)C1)C(F)(F)F (stereo partly drawn) [Compound 78, 5-bromo-2-(9,9-difluoro-7-(isoquinoline-4-carbonyl)-2,7-diazaspiro[4. 4]nonan-2-yl)-3-nitro-N-((R)-1,1,1-trifluoropropan-2-yl)benzamide] and CNC(=O)c1cc(Br)cc([N+](=O)[O-])c1N[C@H]1CN(C(=O)c2cncc3ccccc23)CC[C@@H]1F [Compound 87, 5-bromo-2-(((3S, 4S)-4-fluoro-1-(isoquinoline-4-carbonyl)piperidin-3-yl)amino)-N-methyl-3-nitrobenzamide] cannot be ordered by IC50: under 0.1 µM for the first, under 0.1 µM for the second.

First: CNC(=O)c1cc(Br)cc([N+](=O)[O-])c1N[C@@H]1CN(C(C)=O)CC[C@@H]1NC(=O)c1cncc2ccccc12 [Compound 90, N-((3R, 4S)-1-acetyl-3-((4-bromo-2-(methylcarbamoyl)-6-nitrophenyl)amino)piperidin-4-yl)isoquinoline-4-carboxamide]
Second: CNC(=O)c1cc(Br)cc([N+](=O)[O-])c1O[C@@H]1CCCC[C@@H]1NC(=O)c1cncc2ccccc12 [Compound 102, N-[(1S,2R)-2-[4-bromo-2-(methylcarbamoyl)-6-nitro-phenoxy]cyclohexyl]isoquinoline-4-carboxamide]
The IC50 of the first is higher: 1 to 10 µM for the first, under 0.1 µM for the second.

Compared with CNC(=O)c1cc(Br)cc([N+](=O)[O-])c1N[C@H]1CN(C(=O)C2CC(=O)NC(=O)C2)CCC1(F)F [Compound 100, (S)-5-bromo-2-((1-(2,6-dioxopiperidine-4-carbonyl)-4,4-difluoropiperidin-3-yl)amino)-N-methyl-3-nitrobenzamide], CNC(=O)c1cc(Br)cc([N+](=O)[O-])c1N[C@H]1CN(C(=O)C2CC(=O)Nc3ccccc32)CCC1(F)F (stereo partly drawn) [Compound 104] is lower in IC50: 0.1 to 1 µM for the first, under 0.1 µM for the second.

CNC(=O)c1cc(Br)cc([N+](=O)[O-])c1N[C@H]1CN(C(=O)c2cnc3ccccn23)CCC1(F)F [Compound 101, (S)-5-bromo-2-((4,4-difluoro-1-(imidazo[1,2-a]pyridine-3-carbonyl)piperidin-3-yl)amino)-N-methyl-3-nitrobenzamide] and CNC(=O)c1cc(Br)cc([N+](=O)[O-])c1N[C@H]1CN(C(=O)c2cncc3cccnc23)CCC1(F)F [Compound 107, (S)-5-bromo-2-((4,4-difluoro-1-(1,6-naphthyridine-8-carbonyl)piperidin-3-yl)amino)-N-methyl-3-nitrobenzamide] cannot be ordered by IC50: under 0.1 µM for the first, under 0.1 µM for the second.

CNC(=O)c1cc(Br)cc([N+](=O)[O-])c1N[C@H]1CN(C(=O)c2cc(=O)[nH]c3ccccc23)CCC1(F)F [Compound 103, (S)-5-bromo-2-((4,4-difluoro-1-(2-oxo-1,2-dihydroquinoline-4-carbonyl)piperidin-3-yl)amino)-N-methyl-3-nitrobenzamide] and CNC(=O)c1cc(Cl)cc([N+](=O)[O-])c1N[C@H]1CN(C(=O)c2cncc3cnn(C)c23)CCC1(F)F [Compound 106, (S)-5-chloro-2-((4,4-difluoro-1-(1-methyl-1H-pyrazolo[4,3-c]pyridine-7-carbonyl)piperidin-3-yl)amino)-N-methyl-3-nitrobenzamide] cannot be ordered by IC50: under 0.1 µM for the first, under 0.1 µM for the second.

CNC(=O)c1cc(Cl)cc([N+](=O)[O-])c1N[C@H]1CN(C(=O)c2cncc3ncn(C)c23)CCC1(F)F [Compound 105, (S)-5-chloro-2-((4,4-difluoro-1-(1-methyl-1H-imidazo[4,5-c]pyridine-7-carbonyl)piperidin-3-yl)amino)-N-methyl-3-nitrobenzamide] and CNC(=O)c1cc(Br)cc([N+](=O)[O-])c1N[C@H]1CN(C(=O)c2cncc3cccnc23)CC[C@@H]1F [Compound 108, 5-bromo-2-(((3S, 4S)-4-fluoro-1-(1,6-naphthyridine-8-carbonyl)piperidin-3-yl)amino)-N-methyl-3-nitrobenzamide] cannot be ordered by IC50: under 0.1 µM for the first, under 0.1 µM for the second.

From patent US20260315452A1, “PROTEASE INHIBITORS AND USES THEREOF” (priority 2023, published 2026)
